Laboratory results from patent US10556905B2, “Processes for preparing a diazabicyclooctane compound” (priority 2012, dated 2020).
Read-outs that look alike come from different tables or passages of the source.

What was measured:
[1] = molecular target: T1, AmpC (Pseudomonas aeruginosa, UniProt P24735); test: biochemical
T1 construct: AmpC, TEM-1, KPC-2 or OXA-2 domain excluding signal peptide was amplified with PCR; made in house; host or cells: Escherichia coli BL21 (DE3), pET-28b(+)

[2] = molecular target: T2, TEM-1 (Escherichia coli, UniProt P62593); test: β-Lactamase inhibitory activity (nitrocefin hydrolysis), TEM-1; type: biochemical; conditions: TEM-1 0.1 nM, 100 μM nitrocefin, pre-incubation 30° C. 10 minutes
T2 construct: AmpC, TEM-1, KPC-2 or OXA-2 domain excluding signal peptide was amplified with PCR; made in house; host or cells: Escherichia coli BL21 (DE3), pET-28b(+)
Protocol: Using Pseudomonas aeruginosa ATCCBAA-47 genome, plasmid pBR322, Klebsiella pneumoniae ATCCBAA-1705, and P. aeruginosa MSC17696 as a template, each DNA for encoding β-lactamase, AmpC, TEM-1, KPC-2 or OXA-2 domain excluding signal peptide was amplified with PCR. Each of the PCR product was incorporated into pET-28b(+)vector (Merck), introduced into Escherichia coli BL21 (DE3) (Merck), and, under induction of 1 mM isopropyl-β-D-(−)-thiogalactopyranoside (Nacalai Tesque), cultured overnight at 20° C. to express AmpC, TEM-1, KPC-2, and OXA-2. After the bacterial cell was collected, AmpC was purified from the cell extract obtained by ultrasonic treatment, using CM Sepharose Fast Flow (GE Healthcare) and HiTrap Heparin HP (GE Healthcare) at 4° C. TEM-1 was purified with HiTrap SPHP (GE Healthcare), HiTrap Q (GE Healthcare) and Mono Q (GE Healthcare), and KPC-2 was purified with HiTrap SPHP. OXA-2 was purified with HiTrap SPHP and HiTrap Heparin HP.
For the measurement of β-lactamase inhibitory activity, 100 μM (final concentration) nitrocefin (Oxoid) was used as a substrate, and 2.5% DMSO, 10 μg/mL bovine serum derived albumin (Sigma-Aldrich) and 50 mM phosphate buffer at pH 7.0 were used as a reaction solution. […] Nitrocefin was added to each well to be mixed therein, followed by incubation at 30° C. for 20 minutes, and Multiscan Ascent (Thermo Fisher Scientific) was used to measure 492 nm wavelength, thereby measuring nitrocefin hydrolytic activity of β-Lactamase, to determine enzyme inhibitory activity. […] As the inhibitory activity strength, less than 0.1 μM, less than 1 μM, less than 3 μM, less than 10 μM, and 10 μM or more were shown with A, B, C, D, and E respectively.

[3] = molecular target: T3, KPC-2 (Klebsiella pneumoniae, UniProt Q9F663); test: β-Lactamase inhibitory activity (nitrocefin hydrolysis), KPC-2; type: biochemical; conditions: KPC-2 0.5 nM, 100 μM nitrocefin, pre-incubation 30° C. 10 minutes
T3 construct: AmpC, TEM-1, KPC-2 or OXA-2 domain excluding signal peptide was amplified with PCR; made in house; host or cells: Escherichia coli BL21 (DE3), pET-28b(+)

[4] = molecular target: T4, OXA-2 (Escherichia coli, UniProt P0A1V9); test: biochemical; design: species or system P. aeruginosa
T4 construct: AmpC, TEM-1, KPC-2 or OXA-2 domain excluding signal peptide was amplified with PCR; made in house; host or cells: Escherichia coli BL21 (DE3), pET-28b(+)

[5] = OXA-2 2 nM, 100 μM nitrocefin, pre-incubation 30° C. 10 minutes, read-out: β-Lactamase inhibitory activity OXA-2 (IC50)

T2 sequence (P62593 24-286 limits assumed): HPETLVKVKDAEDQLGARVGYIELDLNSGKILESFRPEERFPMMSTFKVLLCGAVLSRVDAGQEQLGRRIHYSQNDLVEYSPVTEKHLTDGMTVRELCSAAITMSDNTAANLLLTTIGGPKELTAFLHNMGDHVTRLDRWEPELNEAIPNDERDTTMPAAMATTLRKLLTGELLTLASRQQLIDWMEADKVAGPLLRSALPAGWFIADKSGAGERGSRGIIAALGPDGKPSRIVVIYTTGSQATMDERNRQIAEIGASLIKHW
T1 sequence (P24735 27-397): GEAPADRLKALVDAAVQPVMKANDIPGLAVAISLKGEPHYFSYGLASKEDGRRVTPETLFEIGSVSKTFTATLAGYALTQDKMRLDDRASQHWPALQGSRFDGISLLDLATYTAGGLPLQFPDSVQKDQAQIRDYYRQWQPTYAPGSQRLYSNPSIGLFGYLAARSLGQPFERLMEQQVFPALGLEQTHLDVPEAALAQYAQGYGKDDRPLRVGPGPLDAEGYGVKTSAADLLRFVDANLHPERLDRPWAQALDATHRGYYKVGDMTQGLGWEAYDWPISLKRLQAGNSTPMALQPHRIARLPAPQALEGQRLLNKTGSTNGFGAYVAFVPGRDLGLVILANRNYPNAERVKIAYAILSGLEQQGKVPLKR
T3 sequence (Q9F663 25-293, looked up): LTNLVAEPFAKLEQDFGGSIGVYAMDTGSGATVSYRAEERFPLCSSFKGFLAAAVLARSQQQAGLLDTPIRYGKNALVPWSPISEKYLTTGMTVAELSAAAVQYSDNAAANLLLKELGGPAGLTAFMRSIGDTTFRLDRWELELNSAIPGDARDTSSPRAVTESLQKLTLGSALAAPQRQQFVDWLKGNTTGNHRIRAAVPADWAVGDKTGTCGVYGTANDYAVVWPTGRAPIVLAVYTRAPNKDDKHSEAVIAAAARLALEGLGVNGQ
T4 sequence (P0A1V9 22-275): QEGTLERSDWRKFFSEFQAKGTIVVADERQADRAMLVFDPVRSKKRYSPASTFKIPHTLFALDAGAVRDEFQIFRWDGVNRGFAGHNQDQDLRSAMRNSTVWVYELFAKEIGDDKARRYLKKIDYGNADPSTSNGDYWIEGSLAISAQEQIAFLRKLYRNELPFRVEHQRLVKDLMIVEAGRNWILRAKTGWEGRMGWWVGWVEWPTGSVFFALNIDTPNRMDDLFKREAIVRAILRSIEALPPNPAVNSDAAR

Row | SMILES | IC50 [1] | IC50 [2] | IC50 [3] | IC50 [4] | IC50 [4, 5]
1 | CN(NC(=O)[C@@H]1CC[C@@H]2CN1C(=O)N2OS(=O)(=O)O)C(=O)OC(C)(C)C (racemic) [Example 18, Sodium tert-butyl 1-methyl-2-{[(2SR,5RS)-7-oxo-6-(sulfooxy)-1,6-diazabicyclo[3.2.1]oct-2-yl]carbonyl}hydrazinecarboxylate] | 100 to 1000 nM | < 100 nM | 100 to 1000 nM | 1000 to 3000 nM | –
2 | CNNC(=O)[C@@H]1CC[C@@H]2CN1C(=O)N2OS(=O)(=O)O (racemic) [Example 19, (2SR,5RS)—N′-Methyl-7-oxo-6-(sulfooxy)-1,6-diazabicyclo[3.2.1]octane-2-carbohydrazide] | 100 to 1000 nM | < 100 nM | 100 to 1000 nM | – | –
3 | CN(C)NC(=O)[C@@H]1CC[C@@H]2CN1C(=O)N2OS(=O)(=O)O (racemic) [Example 20, Sodium (2SR,5RS)—N′,N′-dimethyl-7-oxo-6-(sulfooxy)-1,6-diazabicyclo[3.2.1]octane-2-carbohydrazide] | 100 to 1000 nM | 100 to 1000 nM | 1000 to 3000 nM | 3000 to 10000 nM | –
4 | CC(=O)N(C)NC(=O)[C@@H]1CC[C@@H]2CN1C(=O)N2OS(=O)(=O)O (racemic) [Example 25, Sodium (2SR,5RS)—N′-acetyl-N′-methyl-7-oxo-6-(sulfooxy)-1,6-diazabicyclo[3.2.1]octane-2-carbohydrazide] | 100 to 1000 nM | < 100 nM | < 100 nM | > 10000 nM | –
5 | NCC(=O)NNC(=O)[C@@H]1CC[C@@H]2CN1C(=O)N2OS(=O)(=O)O (racemic) [Example 26, (2SR,5RS)—N′-(Aminoacetyl)-7-oxo-6-(sulfooxy)-1,6-diazabicyclo[3.2.1]octane-2-carbohydrazide] | 1000 to 3000 nM | 100 to 1000 nM | 1000 to 3000 nM | – | –
6 | O=C(NNC(=O)[C@@H]1CC[C@@H]2CN1C(=O)N2OS(=O)(=O)O)c1ccccc1 (racemic) [Example 30, Sodium (2SR,5RS)—N′-benzoyl-7-oxo-6-(sulfooxy)-1,6-diazabicyclo[3.2.1]octane-2-carbohydrazide] | 100 to 1000 nM | < 100 nM | 100 to 1000 nM | – | –
7 | NCc1ccc(C(=O)NNC(=O)[C@@H]2CC[C@@H]3CN2C(=O)N3OS(=O)(=O)O)cc1 (racemic) [Example 32, (2SR,5RS)—N′-(4-(Aminomethyl)benzoyl)-7-oxo-6-(sulfooxy)-1,6-diazabicyclo[3.2.1]octane-2-carbohydrazide] | < 100 nM | < 100 nM | 100 to 1000 nM | – | 3000 to 10000 nM
8 | O=C(NN1CCCC1=O)[C@@H]1CC[C@@H]2CN1C(=O)N2OS(=O)(=O)O (racemic) [Example 33, Sodium (2SR,5RS)-7-oxo-N-(2-oxopyrrolidin-1-yl)-6-(sulfooxy)-1,6-diazabicyclo[3.2.1]octane-2-carboxamide] | 100 to 1000 nM | < 100 nM | 100 to 1000 nM | 3000 to 10000 nM | –
9 | O=C(NNC(=O)[C@@H]1CC[C@@H]2CN1C(=O)N2OS(=O)(=O)O)Nc1ccccc1 (racemic) [Example 49, Sodium 2-{[(2SR,5RS)-7-oxo-6-(sulfooxy)-1,6-diazabicyclo[3.2.1]oct-2-yl]carbonyl}-N-phenylhydrazinecarboxamide] | 100 to 1000 nM | < 100 nM | 100 to 1000 nM | 3000 to 10000 nM | –
10 | CC(C)(C)OC(=O)NNC(=O)[C@@H]1CC[C@@H]2CN1C(=O)N2OS(=O)(=O)O (racemic) [Example 53, Sodium tert-butyl 2-{[(2SR,5RS)-7-oxo-6-(sulfooxy)-1,6-diazabicyclo[3.2.1]oct-2-yl]carbonyl}hydrazinecarboxylate] | 100 to 1000 nM | < 100 nM | 100 to 1000 nM | – | –
11 | O=C(NN1CCOCC1)[C@@H]1CC[C@@H]2CN1C(=O)N2OS(=O)(=O)O (racemic) [Example 55, Sodium (2SR,5RS)—N-(morpholin-4-yl)-7-oxo-6-(sulfooxy)-1,6-diazabicyclo[3.2.1]octane-2-carboxamide] | 100 to 1000 nM | 100 to 1000 nM | 1000 to 3000 nM | 3000 to 10000 nM | –
12 | CCONC(=O)[C@@H]1CC[C@@H]2CN1C(=O)N2OS(=O)(=O)O (racemic) [Example 57, Sodium (2SR,5RS)—N-ethoxy-7-oxo-6-(sulfooxy)-1,6-diazabicyclo[3.2.1]octane-2-carboxamide] | 100 to 1000 nM | < 100 nM | 1000 to 3000 nM | – | –
13 | NNC(=O)[C@@H]1CC[C@@H]2CN1C(=O)N2OS(=O)(=O)O [Example 17, (2S,5R)-7-Oxo-6-(sulfooxy)-1,6-diazabicyclo[3.2.1]octane-2-carbohydrazide] | 100 to 1000 nM | < 100 nM | 100 to 1000 nM | – | 3000 to 10000 nM
14 | CC(=O)NNC(=O)[C@@H]1CC[C@@H]2CN1C(=O)N2OS(=O)(=O)O [Example 21, Sodium (2S,5R)—N′-acetyl-7-oxo-6-(sulfooxy)-1,6-diazabicyclo[3.2.1]octane-2-carbohydrazide] | 100 to 1000 nM | < 100 nM | 100 to 1000 nM | 1000 to 3000 nM | –
15 | CCC(=O)NNC(=O)[C@@H]1CC[C@@H]2CN1C(=O)N2OS(=O)(=O)O [Example 22, Sodium (2S,5R)-7-oxo-N′-propanoyl-6-(sulfooxy)-1,6-diazabicyclo[3.2.1]octane-2-carbohydrazide] | 100 to 1000 nM | < 100 nM | 100 to 1000 nM | 3000 to 10000 nM | –
16 | CC(C)C(=O)NNC(=O)[C@@H]1CC[C@@H]2CN1C(=O)N2OS(=O)(=O)O [Example 23, Sodium (2S,5R)—N′-(2-methylpropanoyl)-7-oxo-6-(sulfooxy)-1,6-diazabicyclo[3.2.1]octane-2-carbohydrazide] | 100 to 1000 nM | < 100 nM | 100 to 1000 nM | 3000 to 10000 nM | –
17 | CC(C)(C)C(=O)NNC(=O)[C@@H]1CC[C@@H]2CN1C(=O)N2OS(=O)(=O)O [Example 24, Sodium (2S,5R)—N′-(2,2-dimethylpropanoyl)-7-oxo-6-(sulfooxy)-1,6-diazabicyclo[3.2.1]octane-2-carbohydrazide] | 100 to 1000 nM | 100 to 1000 nM | 100 to 1000 nM | – | –
18 | NCCC(=O)NNC(=O)[C@@H]1CC[C@@H]2CN1C(=O)N2OS(=O)(=O)O [Example 27, (2S,5R)—N′-(3-Aminopropanoyl)-7-oxo-6-(sulfooxy)-1,6-diazabicyclo[3.2.1]octane-2-carbohydrazide] | 100 to 1000 nM | < 100 nM | 1000 to 3000 nM | – | 1000 to 3000 nM
19 | Nc1ccc(CC(=O)NNC(=O)[C@@H]2CC[C@@H]3CN2C(=O)N3OS(=O)(=O)O)cc1 [Example 28, (2S,5R)—N′-[(4-Aminophenyl)acetyl]-7-oxo-6-(sulfooxy)-1,6-diazabicyclo[3.2.1]octane-2-carbohydrazide] | < 100 nM | < 100 nM | 100 to 1000 nM | – | 3000 to 10000 nM
20 | O=C([C@@H]1CC[C@@H]2CN1C(=O)N2OS(=O)(=O)O)N1CCCCO1 [Example 71, Sodium (2S,5R)-2-(1,2-oxazinan-2-ylcarbonyl)-6-(sulfooxy)-1,6-diazabicyclo[3.2.1]octane-7-one] | 100 to 1000 nM | < 100 nM | 100 to 1000 nM | – | –
21 | O=C(NOCCN1CCNCC1)[C@@H]1CC[C@@H]2CN1C(=O)N2OS(=O)(=O)O [Example 73, (2S,5R)-7-Oxo-N-[2-(piperazin-1-yl)ethoxy]-6-(sulfooxy)-1,6-diazabicyclo[3.2.1]octane-2-carboxamide] | < 100 nM | < 100 nM | 100 to 1000 nM | – | –
22 | O=C(NOCCn1ccnc1)[C@@H]1CC[C@@H]2CN1C(=O)N2OS(=O)(=O)O [Example 86, Sodium (2S,5R)—N-[2-(1H-Imidazol-1-yl)ethoxy]-7-oxo-6-(sulfooxy)-1,6-diazabicyclo[3.2.1]octane-2-carboxamide] | < 100 nM | < 100 nM | 100 to 1000 nM | – | –
23 | O=C(NC1CCNCC1)[C@@H]1CC[C@@H]2CN1C(=O)N2OS(=O)(=O)O [MK-7655, reference compound] | – | – | – | – | 100 to 1000 nM
24 | NC(=O)[C@@H]1CC[C@@H]2CN1C(=O)N2OS(=O)(=O)O [NXL104, reference compound] | – | – | – | – | 100 to 1000 nM
25 | C[C@]1(Cn2ccnn2)[C@H](C(=O)O)N2C(=O)C[C@H]2S1(=O)=O [TAZ, tazobactam, reference compound] | – | – | 100 to 1000 nM | – | < 100 nM
